# Results taken from ChEMBL document CHEMBL1159183, “Non-peptide itam mimics as ZAP-70 antagonists” (Bioorg Med Chem Lett, 1997).
# Experiments:
# Jurkat = assay: Cellular activity was measured by an IL-2 luciferase reporter gene assay on a Jurkat human T cell line activated by anti-CD28 and anti-TCR antibodies; format: functional, cell-based
# [1] = molecular target: T1, Tyrosine-protein kinase ZAP-70 (Homo sapiens, UniProt P43403); assay: Antagonistic activity against SH2 domain of Zeta-chain (TCR) associated protein kinase, ZAP-70; format: functional
# T1 sequence (P43403 whole entry): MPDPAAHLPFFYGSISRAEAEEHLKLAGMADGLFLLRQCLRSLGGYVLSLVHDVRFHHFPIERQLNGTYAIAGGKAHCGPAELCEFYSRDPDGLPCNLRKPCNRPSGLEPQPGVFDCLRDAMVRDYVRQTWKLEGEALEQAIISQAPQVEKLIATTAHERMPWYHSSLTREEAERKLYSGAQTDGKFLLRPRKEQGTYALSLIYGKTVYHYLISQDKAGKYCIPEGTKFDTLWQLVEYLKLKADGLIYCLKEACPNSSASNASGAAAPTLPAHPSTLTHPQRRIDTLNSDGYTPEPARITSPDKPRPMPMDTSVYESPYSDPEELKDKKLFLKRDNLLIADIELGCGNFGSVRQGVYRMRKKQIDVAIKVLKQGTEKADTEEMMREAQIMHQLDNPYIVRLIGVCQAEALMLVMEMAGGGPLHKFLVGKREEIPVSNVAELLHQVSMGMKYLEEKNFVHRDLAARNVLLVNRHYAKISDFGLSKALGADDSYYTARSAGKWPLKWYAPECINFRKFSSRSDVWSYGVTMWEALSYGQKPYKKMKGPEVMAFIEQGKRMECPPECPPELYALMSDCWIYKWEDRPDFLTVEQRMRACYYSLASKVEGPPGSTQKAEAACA
Structure (SMILES),IC50 (Jurkat),IC50 [1]
CCCCCC(=O)N(Cc1ccc(CP(=O)(O)O)cc1)[C@H]1CC[C@H]2[C@@H]3CCc4cc(OCCCOc5ccc6c(c5)CC[C@@H]5[C@@H]6CC[C@]6(C)[C@@H](N(Cc7ccc(CP(=O)(O)O)cc7)C(=O)CCCCC)CC[C@@H]56)ccc4[C@H]3CC[C@]12C,26.5 µM,0.32 µM
CCCCCC(=O)N(Cc1ccc(C(F)(F)P(=O)(O)O)cc1)[C@H]1CC[C@H]2[C@@H]3CCc4cc(OCCC)ccc4[C@H]3CC[C@]12C,0.9 µM,1.9 µM
CCCCCC(=O)N(Cc1ccc(CP(=O)(O)O)cc1)[C@H]1CC[C@H]2[C@@H]3CCc4cc(OCCC)ccc4[C@H]3CC[C@]12C,3.6 µM,3.2 µM
CCCCCC(=O)N(Cc1ccc(C(F)(F)P(=O)(O)O)cc1)[C@H]1CC[C@H]2[C@@H]3CCc4cc(OCCCOc5ccc6c(c5)CC[C@@H]5[C@@H]6CC[C@]6(C)[C@@H](N(Cc7ccc(C(F)(F)P(=O)(O)O)cc7)C(=O)CCCCC)CC[C@@H]56)ccc4[C@H]3CC[C@]12C,1.9 µM,0.25 µM
